# Source: patent US20250051727A1, “CARDIAC ORGANOID WITH INNER PART HAVING CAVITIES AND MULTIPLE LAYERS” (MEDIZINISCHE HOCHSCHULE HANNOVER, priority 2018, published 2025)
# Test system: cardiac organoids (from hESC3 NKX2.5-eGFP)
# Format: cell-based, human
# Protocol: The process was performed for steps a) to n) as described with reference to FIG. 1. Incubation under cell culture conditions was in a 5% CO2 atmosphere at 37° C., using ultra-low attachment 96 well microtiter plates, Nunclon Sphera 96U-well plate available from Thermo Fisher Scientific, as the first vessels. The PSC were the human embryonic stem cell line hESC3 NKX2.5-eGFP. These exemplary PSC were genetically manipulated to express enhanced green fluorescent protein (eGFP) as a reporter under the control of the early cardiomyocyte-specific marker NKX2.5 to indicate early cardiomyocyte differentiation.
# These PSC were cultivated on cell culture flasks (preferably Geltrex-coated) in E8 medium and detached from the flasks to provide the PSC in suspension. In step a), 5000 PSC suspended in 100 μL of the first medium, which was E8 medium (DMEM/F12, L-ascorbic acid-2-phosphate magnesium (64 mg/L), sodium selenium (14 μg/L), FGF2 (100 μg/L), insulin (19.4 mg/L), NaHCO3 (543 mg/L) and transferrin (10.7 mg/L), TGFβ1 (2 μg/L) or NODAL (100 μg/L), osmolarity adjusted to 340 mOsm at pH7.4) supplemented with 10 μM ROCK inhibitor (Y-27632, catalogue No. 72302, Stemcell Technologies)), were carefully dispensed into wells of the microtiter plate. Centrifugation of step b) was twice for 3 min at 300× g with the centrifuge cooled to 4° C. The centrifuged first vessels each contained one agglomerate on the U-shaped bottom and were carefully placed into a cell culture incubator in order to avoid disturbance of the cells localized at the U-shaped bottom. Incubation of step c) without agitation was for 24 h, resulting in the formation of an aggregate of the cells. For embedding in Matrigel (thawed on ice, 9.7 to 10.1 mg/mL protein content) as the exemplary hydrogel, 20 μL Matrigel were positioned in each well of a microtiter plate, the wells of which forming second vessels, which plate was of the same ultra-low attachment quality as the first. […]
structure (smiles),measurement,setting,value
O=C1CCC(N2C(=O)c3ccccc3C2=O)C(=O)N1 (stereo not drawn) [Thalidomide],"thickness of the myocardial ring compared to Controls (micrographs, FIG. 15)",,substantially thinner than in Controls
same,"NKX2.5-eGFP-positive cells on the outer layer (micrographs, FIG. 15)","human, 80 μg/mL",absence of any NKX2.5-eGFP-positive cells on the outer layer
same,average diameter of the myocardial ring,"human, 80 μg/mL",165 μm
